Measurements reported in patent US20190145962A1, “PEPTIDE FOR […] OF AMYLOSPHEROIDS (ASPD), AND […] SCREENING METHOD” (TAO HEALTH LIFE PHARMA CO., LTD., priority 2016, published 2019).

Tests used:
[1] = test system: binding of ASPD to neurons (synthetic ASPD, primary cultured rat hippocampal neurons); assay: Evaluation of ASPD-inhibitory peptides: inhibition of binding of ASPD to cultured neurons (immunofluorescence imaging, titer); assay type: cell-based; conditions: for ASPD-binding inhibitory ability (titer) compared with known ASPD neutralizing peptide 01 (HFNW): qualitative comparison with peptide 01, FIG. 3 and FIG. 4; for effect of inhibiting binding of ASPD to neurons: qualitative, evaluation of section 1
Description: Evaluation of peptides that inhibits binding of ASPD to neurons was performed by the following method.
Step 1: Adding a liquid mixture containing peptide and ASPD, which have been mixed together and then incubated, to cultured mature neurons.
Step 2: Degenerating (immobilizing) the neurons.
Step 3: Immunostaining the neurons and the ASPD, respectively, to perform imaging.
Step 4: Analyzing the image to quantify the ASPD bound to the neurons.
Step 5: Evaluating the peptides using the amount of the ASPD bound and/or an analytical value obtained therefrom.
Steps 1 to 3 were performed as follows:
A liquid mixture of peptide and synthetic ASPD was incubated at 4° C. for 15 minutes to pretreat the ASPD and this liquid mixture was added to primary cultured rat hippocampal neurons cultured in a 96-well plate.
After incubation at 37° C. for 15 minutes in a CO2 incubator, the wells were washed with PBS. Then, 2% paraformaldehyde (50 μl/well) was added thereto for immobilization performed for 20 minutes at 37° C. and further 4% paraformaldehyde (50 μl/well) was added thereto for immobilization performed for 20 minutes at 37° C. After washing and blocking, a primary antibody solution containing anti-ASPD antibody (mASD3) and anti-MAP2 antibody (trade name: sc-20172, manufactured by SANTACRUZ) was added, which then was left overnight. After washing, a secondary antibody solution containing Alexa Fluoro (trademark) 568 anti-mouse antibody (trade name: A11031, manufactured by life technologies), Alexa Fluoro (trademark) 488 anti-rabbit antibody (trade name: A11034, manufactured by life technologies), and DAPI (trade name: D523, manufactured by Dojindo) was added and then fluorescence microscopic observation was performed.
Subsequently, steps 4 to 5 were performed as follows: From the microscopic observation data, a calibration curve as shown in FIG. 2 was drawn, an approximate curve was created within a range where linearity was maintained, and then ED50 was calculated. Using, as an indicator, “titer” that is defined by the ratio of ED50 of the ASPD treated with peptide to ED50 of the ASPD alone, the ASPD-binding inhibitory ability of peptide was evaluated.
Titer=ED50[ASPD+Peptide]/ED50[ASPD]

Synthetic ASPD = biological target: T1, Synthetic ASPD (Homo sapiens, UniProt P05067); assay: Surface plasmon resonance (SPR), synthetic ASPD solid-phased on a chip, peptide as analyte; assay type: binding; conditions: class symbols, key not given; the dissociation constant (KD) was determined but is not given
T1 construct: can be produced by slowly rotating a liquid containing Aß
T1 sequence (P05067 672-713 limits assumed): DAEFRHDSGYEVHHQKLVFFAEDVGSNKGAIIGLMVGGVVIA
Description: Synthetic ASPD were solid-phased on a chip and each peptide shown in Table 3 below was allowed to flow as an analyte. Then the dissociation constant (KD) was determined by surface plasmon resonance (SPR).

Substance | ASPD-binding inhibitory ability (titer) compared with known ASPD neutralizing peptide 01 (HFNW) [1] | Results of SPR (Ability to Bind to ASPD) (Synthetic ASPD) | effect of inhibiting binding of ASPD to neurons [1]
HFRW [Peptide 16] | superior | – | –
HFKW [Peptide 22] | superior | – | –
HPNW [reference compound] | – | No binding was found. | could not inhibit the binding of ASPD to neurons
HANW [Peptide 10] | comparable to that of known ASPD neutralizing peptide 01 (HFNW) | – | –
HHNW [Peptide 05] | comparable to that of known ASPD neutralizing peptide 01 (HFNW) | – | showed the effect of inhibiting binding of ASPD to neurons
HNNW [reference compound] | – | No binding was found. | could not inhibit the binding of ASPD to neurons
HFNW [Peptide 01, known ASPD neutralizing peptide, reference compound] | – | – | showed the effect of inhibiting binding of ASPD to neurons
HFWW [Peptide 15] | – | – | showed the effect of inhibiting binding of ASPD to neurons
HVNW [Peptide 11] | comparable to that of known ASPD neutralizing peptide 01 (HFNW) | – | –
HFDW [Peptide 18] | – | – | showed the effect of inhibiting binding of ASPD to neurons
HTNW [Peptide 09] | comparable to that of known ASPD neutralizing peptide 01 (HFNW) | – | showed the effect of inhibiting binding of ASPD to neurons
HYNW [Peptide 08] | – | – | showed the effect of inhibiting binding of ASPD to neurons
